The results in this text go back to US10195170B2, “Methods for inhibiting expression of ASC, expression of NLRP3, and/or formation of NLRP3 inflammasome complex using diacerein or its analogs” (TWi Biotechnology, Inc., priority 2015, dated 2019).

For assay [1], the system named is ASC. The assay is described as follows: Immunofluorescence staining (fluorescence confocal assay) of ASC in MSU-stimulated THP-1 cells. In kind it is cell-based, human. The conditions noted are these: PMA-primed THP-1 cells, then 100 μg/mL MSU for 6 hours. The method, then:
(§1) The 20 mg of rhein powder was dissolved in 1 mL 100% dimethyl sulfoxide (DMSO), sterilized by 0.22 μm pore filter membranes, and stored at −20° C. before use. The monosodium urate (MSU) crystal (10 mg/mL) was prepared in sterilized phosphate buffered saline (PBS). The adenosine […] disodium salt (ATP) was dissolved in ddH2O and sterilized by 0.22 μm pore filter membranes. THP-1, human acute monocytic leukemia cell line (ATCC® TIB-202), were suspended in RPMI-1640 medium (GIBCO, Life Technologies, Grand Island, USA) supplemented with 10% fetal bovine serum and 1% of antibiotics (penicillin-streptomycin-amphotericin B) conditioned media. For macrophage-like differentiation, THP-1 cells were primed by 0.1 μM phorbol myristyl acetate (PMA) for 24 hours. […] For cell viability, PMA-primed THP-1 cells were detected in the presence or absence of rhein incubation for 24 hours by the Cell Counting Kit-8 (CCK-8 assay, Sigma-Aldrich, St Louis, USA). […] Fluorescence confocal assay was performed to detect the human ASC and NLRP3 expression in paraformaldehyde-fixed THP-1 cells after treatment. […] The stained areas of ASC (green) and NLRP3 (red) staining distributions were quantified and analyzed by Metamorph analyzer. […] P-value was determined by the two-tailed unpaired t-test.

The subject of assay [2] is NLRP3. The assay is described as follows: Immunofluorescence staining (fluorescence confocal assay) of NLRP3 in MSU-stimulated THP-1 cells. In kind it is cell-based, human. The conditions noted are these: PMA-primed THP-1 cells, then 100 μg/mL MSU for 6 hours. Here is the method: as §1

SMILES strings stand for the structures.

For the molecule `O=C(O)c1cc(O)c2c(c1)C(=O)c1cccc(O)c1C2=O` [rhein, 9, 10-dihydro-4,5-dihydroxy-9, 10-dioxo-2-anthracene carboxylic acid], the “decrease of staining of ASC sections, average intensity of area/cell” value in assay [1] (rhein 5 μg/mL overnight (lower dose), P=0.0011) is “about 64.0%”; in assay [1] (rhein 10 μg/mL overnight (higher dose), P=0.0022), ~79.0%. For the same molecule, the “inhibition of NLRP3 levels, average intensity of area/cell” value is on record as “about 62.5%” in assay [2] (rhein 5 μg/mL overnight (lower dose), P=0.014) and ~84.1% in assay [2] (rhein 10 μg/mL overnight (higher dose), P=0.0012).
